The source of these data is US7678365B2, “Disinfecting oral rinse compositions and process for using the same” (priority 2001, dated 2010).

The test system of data set [1] is E. coli. Nature of the data set: AOAC Germicidal Test procedure. It counts as cell-based. The following applies: for E. coli organisms destroyed/killed: initial inoculum of E. coli 7.63 logs10/ml, equimolar amounts of the unionized acid form. The source says: […]. […] […].
The nature of data set [2]: Acid ionization constants and lactic acid/lactate speciation. The class given is physicochemical. From the text: […]. When citric acid is used as the supplemental acid, less total acid is required to achieve a desired pH than, say, when using malic acid, which is half the strength of citric (Ka1 of citric is 8.2×10^−4 vs. 3.9×10^−4 for malic acid). Thus a smaller amount of lactic acid is used when it represents, say, 10% of a lactic/citric combination than a lactic/malic combination; […]. In certain embodiments, the metal lactate in these compositions is an alkali, an alkaline earth lactate, or a heavier metal lactate. […]. Useful alkaline earth metal lactates include magnesium and calcium lactate. Available heavier metal lactates are ferrous and aluminum lactates, although the cation flavor is intrusive. […]. At pH 2.5 96% of the two lactic species exist as lactic acid, which drops to 70% at pH 3.5. […].
The acid and chlorite solutions had first been equilibrated at 37° C., to simulate body temperature. The solution pHs, in both cases, were 3.0. After 10 minutes, the solution Absorbance values were measured at a wavelength of 360 nm in a spectrophotometer, and the concentration of chlorine dioxide (ClO2) then calculated, using the molar extinction coefficient of 1,242 liter/mole.cm. […]

Turning to `O=C(O)CC(O)C(=O)O` (stereo not drawn) [malic acid], the “E. coli organisms destroyed/killed” value in data set [1] was 1.45 logs10/ml. In addition, the “residual E. coli organisms per ml after disinfection, malic acid-treated relative to lactic acid-treated suspension” value in data set [1] (malic acid vs lactic acid) is about 1500 times.

In the case of `CC(O)C(=O)O` (stereo not drawn) [lactic acid], in data set [1], the “E. coli organisms destroyed/killed” value came out at 4.15 logs10/ml. Moreover, the results for the “fraction of the two lactic species existing as lactic acid” value in data set [2] (pH 2.5), in data set [2] (pH 3.5) and in data set [2] (pH 4.0) were 96%, 70% and 42%, respectively.
